Holding throughout (assay type): cell-based
For assay [1], the system named is H226 human lung cancer cell line. The assay is described as follows: Cytotoxic activity of dimers against H226 cells. An excerpt: (§1) H226 is a human lung cancer cell line. N87 is a human gastric cancer cell line. OVCAR3 is a human ovarian cancer cell line. HCT116 is a human colon cancer cell line. HCT116/VM46 is a human colon cancer cell line that is multi-drug and paclitaxel resistant.

Assay [2] deals with HCT116/VM46 human colon cancer cell line (multi-drug and paclitaxel resistant). The assay can be described thus: Cytotoxic activity of dimers against HCT116/VM46 cells.
From the text: as §1

Assay [3] relates to N87 human gastric cancer cell line. The assay is described as follows: Cytotoxic activity of dimers against N87 cells. Conditions: read-out: Cell Line (IC50, nM) N87.
From the text: as §1

For assay [4], the system named is HCT116 human colon cancer cell line. The assay is described as follows: Cytotoxic activity of dimers against HCT116 cells.
From the text: as §1

In assay [5] the test system is OVCAR3 human ovarian cancer cell line. The assay is described as follows: Cytotoxic activity of dimers against OVCAR3 cells.
From the text: as §1

Where [6] appears, read: Table 4, H226 human lung cancer cell line, read-out: Cell Line (IC50, nM) H226.
Setting [7] is: Table 4, N87 human gastric cancer cell line.
[8] abbreviates: Table 4, OVCAR3 human ovarian cancer cell line, read-out: Cell Line (IC50, nM) OVCAR3.
The mark [9] stands for this setting: Homo sapiens, NCI-H226, read-out: Cell Line (IC50, nM) H226.
The mark [10] stands for this setting: Homo sapiens, HCT-116/VM46, Table 4.
The mark [11] stands for this setting: Homo sapiens, OVCAR-3, read-out: Cell Line (IC50, nM) OVCAR3.

Structures are written as SMILES. Read-outs that look alike come from different tables or passages of the source.

As to `CN1CCN(c2ccc(C3=CN4C(=O)c5cc6c(cc5N=C[C@@H]4C3)OCCCOc3cc4c(cc3OCCCCCCCCO6)C(=O)N3C=C(c5ccc(N6CCN(C)CC6)cc5)C[C@H]3C=N4)cc2)CC1` [IIc-8], the IC50 in assay [1] (setting [6]) is 0.047 nM; in assay [2] (Table 4) it was 0.076 nM; in assay [3] (setting [7]), 0.034 nM; in assay [4] (Table 4), 0.006 nM; in assay [5] (setting [8]), 0.35 nM.

As to `CN1CCN(c2ccc(C3=CN4C(=O)c5cc6c(cc5N=C[C@@H]4C3)OCCCOc3cc4c(cc3OCCCCCCCCO6)C(=O)N3C=C(c5ccc(N6CCNCC6)cc5)C[C@H]3C=N4)cc2)CC1` [IIc-9], the IC50 in assay [1] (setting [9]) came out at 0.33 nM; in assay [2] (setting [10]) it was 0.16 nM; in assay [3] (Homo sapiens) it was 0.68 nM; in assay [4] (HCT-116, Table 4), 0.063 nM; in assay [5] (setting [11]), 1 nM.

As for `CN1CCN(c2ccc(C3=CN4C(=O)c5cc6c(cc5N=C[C@@H]4C3)OCCCOc3cc4c(cc3OCCCCCCCCO6)C(=O)N3C=C(c5ccc(N)cc5)C[C@H]3C=N4)cc2)CC1` [IIc-10], the IC50 is 0.044 nM in assay [1] (setting [6]); 0.071 nM in assay [2] (Table 4); 0.36 nM in assay [3] (setting [7]); 0.022 nM in assay [4] (Table 4); 0.36 nM in assay [5] (setting [8]).

On to `COc1ccc(C2=CN3C(=O)c4cc5c(cc4N=C[C@@H]3C2)OCCCOc2cc3c(cc2OCCCCCCCCO5)C(=O)N2C=C(c4ccc(N)cc4)C[C@H]2C=N3)cc1` [IIc-11], for which the IC50 in assay [1] (setting [9]) was found to be 0.36 nM; in assay [2] (setting [10]), 0.36 nM; in assay [3] (Homo sapiens), 0.56 nM; in assay [4] (HCT-116, Table 4) it was 0.063 nM; in assay [5] (setting [11]), 0.31 nM.

Regarding `CC1=CN2C(=O)c3cc4c(cc3N=C[C@@H]2C1)OCCCOc1cc2c(cc1OCCCCCCCCO4)C(=O)N1C=C(c3ccc(N)cc3)C[C@H]1C=N2` [IId-1], the IC50 in assay [1] (setting [9]) is 0.66 nM; in assay [2] (setting [10]), 1.2 nM; in assay [3] (Homo sapiens), 1.4 nM; in assay [4] (HCT-116, Table 4), 0.14 nM; in assay [5] (setting [11]), 1.2 nM.

For the compound `C=C1C[C@H]2C=Nc3cc4c(cc3C(=O)N2C1)OCCCCCCCCOc1cc2c(cc1OCCCO4)N=C[C@@H]1Cc3ccc(N)cc3CN1C2=O` [IId-2], the IC50 was 0.56 nM in assay [1] (setting [6]); 2.8 nM in assay [2] (Table 4); 1.1 nM in assay [3] (setting [7]); 0.11 nM in assay [4] (Table 4); 0.71 nM in assay [5] (setting [8]).

As to `CN1CCN(c2ccc(C3=CN4C(=O)c5cc6c(cc5NC[C@@H]4C3)OCCCOc3cc4c(cc3OCCCCCCCCO6)C(=O)N3C=C(c5ccc(N6CCN(C)CC6)cc5)C[C@H]3C=N4)cc2)CC1` [IId-3], the IC50 amounted to 0.035 nM in assay [1] (setting [9]); 0.033 nM in assay [2] (setting [10]); 0.072 nM in assay [3] (Homo sapiens); 0.045 nM in assay [4] (HCT-116, Table 4); 0.26 nM in assay [5] (setting [11]).

On to `CN1CCN(c2ccc(C3=CN4C(=O)c5cc6c(cc5NC[C@@H]4C3)OCCCOc3cc4c(cc3OCCCCCCCCO6)C(=O)N3C=C(c5ccc(N6CCN(C)CC6)cc5)C[C@H]3CN4)cc2)CC1` [IId-4], for which the IC50 in assay [1] (setting [6]) was 8.1 nM; in assay [2] (Table 4) it was 4.8 nM; in assay [3] (setting [7]), 12 nM; in assay [4] (Table 4) it was 2 nM; in assay [5] (setting [8]), 20 nM.

These data come from patent US9902740B2, “Macrocyclic benzodiazepine dimers, conjugates thereof, preparation and uses” (BRISTOL-MYERS SQUIBB COMPANY, priority 2015, dated 2018).
